In patent US12202818B2, “Compounds and methods for CD73 modulation and indications therefor” (Opna Bio SA, priority 2020, dated 2025):

Experiments:
human CD73 = molecular target: T1, human CD73 (Homo sapiens, UniProt P21589); test: Inhibitor activity against CD73 in cell based assay (CD73 expressing CHO-K1 cells); conditions: CHO-K1 cells expressing human CD73, 150 μM AMP, 4 hours of incubation; read-out: CHO-K1 CELL_VARIANT: CD73 IC50
T1 construct: expressed in transfected cells
T1 sequence (P21589 27-549): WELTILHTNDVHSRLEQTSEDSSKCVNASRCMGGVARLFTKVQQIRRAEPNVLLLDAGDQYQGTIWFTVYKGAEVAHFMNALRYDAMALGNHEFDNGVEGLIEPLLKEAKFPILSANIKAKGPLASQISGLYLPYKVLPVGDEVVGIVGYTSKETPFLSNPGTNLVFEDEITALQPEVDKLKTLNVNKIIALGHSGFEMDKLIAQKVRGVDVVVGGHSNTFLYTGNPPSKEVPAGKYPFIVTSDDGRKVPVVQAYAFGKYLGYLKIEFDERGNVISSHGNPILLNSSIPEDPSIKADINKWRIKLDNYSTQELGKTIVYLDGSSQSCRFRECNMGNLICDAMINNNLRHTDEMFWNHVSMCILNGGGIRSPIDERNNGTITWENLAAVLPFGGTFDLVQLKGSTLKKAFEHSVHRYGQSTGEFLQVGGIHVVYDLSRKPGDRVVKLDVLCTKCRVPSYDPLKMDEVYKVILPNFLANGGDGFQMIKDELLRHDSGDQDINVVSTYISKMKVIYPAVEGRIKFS
Outline: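 Stable human CD73 CHO-K1 cells, 1×10^4/well, exposed to an 8-point 1:3 compound series (top 10 μM, 0.2% DMSO) plus 150 μM AMP for 4 h. Remaining AMP in the supernatant was read by CellTiter-Glo 2.0 luminescence with 1 μM ATP after 30 min at room temperature. IC50 came from nonlinear regression of % inhibition against cell and media-only controls.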

[1] = molecular target: T2, Human CD73 (amino acid residues 27-549) (Homo sapiens, UniProt P21589); test: CD73 enzymatic assay (luciferase-based indirect assay, CellTiter-Glo); type: biochemical; conditions: 0.4 nM CD73, 150 μM AMP, 1 hour at room temperature
T2 construct: Human CD73 (amino acid residues 27-549); His tag (N); made in house; host or cells: E. coli
T2 sequence (P21589 27-549): T1 sequence (P21589 27-549)
Outline: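 N-His human CD73 (27-549) expressed in E. coli, 0.4 nM, incubated with 150 μM AMP and compound in 50 mM HEPES pH 7.4, 0.01% Tween-20, 1 h at RT. Remaining AMP read via CellTiter-Glo luminescence with 1 μM ATP after 30 min; IC50 from nonlinear regression of % inhibition.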

IC50 (human CD73) [µM]	IC50 [1] [µM]	SMILES
0.001 to 10	0.001 to 10	Cc1noc(C)c1-c1cc(O[C@H]2CN(c3cnn(CC(O)CO)c(=O)c3Cl)C[C@@H]2F)ncc1F (stereo partly drawn) [P-0129, 4-chloro-2-(2,3-dihydroxypropyl)-5-((3S,4S)-3-((4-(3,5-dimethylisoxazol-4-yl)-5-fluoropyridin-2-yl)oxy)-4-fluoropyrrolidin-1-yl)pyridazin-3(2H)-one]
0.001 to 10	0.001 to 10	Cc1nn(CC2(F)COC2)c(C)c1-c1ccnc(O[C@@H]2CCN(c3cn[nH]c(=O)c3Cl)C2)c1 [P-0130, (R)-4-chloro-5-(3-((4-(1-((3-fluorooxetan-3-yl)methyl)-3,5-dimethyl-1H-pyrazol-4-yl)pyridin-2-yl)oxy)pyrrolidin-1-yl)pyridazin-3(2H)-one]
0.001 to 10	0.001 to 10	Cc1nn(C)c(C)c1-c1ccnc(O[C@@H]2CCN(c3cnn(CC(O)CO)c(=O)c3Cl)C2)c1 (stereo partly drawn) [P-0131, 4-chloro-2-(2,3-dihydroxypropyl)-5-((R)-3-((4-(1,3,5-trimethyl-1H-pyrazol-4-yl)pyridin-2-yl)oxy)pyrrolidin-1-yl)pyridazin-3(2H)-one]
0.001 to 10	0.001 to 10	Cc1noc(C)c1-c1cc(O[C@H]2CN(c3cnn(CCO)c(=O)c3Cl)C[C@@H]2F)ncc1F [P-0132, 4-chloro-5-((3S,4S)-3-((4-(3,5-dimethylisoxazol-4-yl)-5-fluoropyridin-2-yl)oxy)-4-fluoropyrrolidin-1-yl)-2-(2-hydroxyethyl)pyridazin-3(2H)-one]
0.001 to 10	0.001 to 10	Cc1nn(CC2(F)COC2)c(C)c1-c1cc(F)nc(O[C@@H]2CCN(c3cn[nH]c(=O)c3Cl)C2)c1 [P-0133, (R)-4-chloro-5-(3-((6-fluoro-4-(1-((3-fluorooxetan-3-yl)methyl)-3,5-dimethyl-1H-pyrazol-4-yl)pyridin-2-yl)oxy)pyrrolidin-1-yl)pyridazin-3(2H)-one]
0.001 to 10	0.001 to 10	Cc1noc(C)c1-c1cc(O[C@H]2CN(c3cn[nH]c(=O)c3Cl)C[C@@H]2F)ncc1F [P-0134, 4-chloro-5-((3S,4S)-3-((4-(3,5-dimethylisoxazol-4-yl)-5-fluoropyridin-2-yl)oxy)-4-fluoropyrrolidin-1-yl)pyridazin-3(2H)-one]
0.001 to 10	0.001 to 10	Cc1nn(C)c(C)c1-c1cc(O[C@@H]2CCN(c3cnn(CCO)c(=O)c3Cl)C2)ccn1 [P-0135, (R)-4-chloro-2-(2-hydroxyethyl)-5-(3-((2-(1,3,5-trimethyl-1H-pyrazol-4-yl)pyridin-4-yl)oxy)pyrrolidin-1-yl)pyridazin-3(2H)-one]
0.001 to 10	0.001 to 10	Cc1noc(C)c1-c1cc(O[C@@H]2CCN(c3cnn(CCO)c(=O)c3Cl)C2)ccn1 [P-0136, (R)-4-chloro-5-(3-((2-(3,5-dimethylisoxazol-4-yl)pyridin-4-yl)oxy)pyrrolidin-1-yl)-2-(2-hydroxyethyl)pyridazin-3(2H)-one]
0.001 to 10	0.001 to 10	Cc1nn(C)c(C)c1-c1cc(O[C@@H]2CCN(c3cn[nH]c(=O)c3Cl)C2)ccn1 [P-0137, (R)-4-chloro-5-(3-((2-(1,3,5-trimethyl-1H-pyrazol-4-yl)pyridin-4-yl)oxy)pyrrolidin-1-yl)pyridazin-3(2H)-one]
0.001 to 10	0.001 to 10	Cc1noc(C)c1-c1cc(O[C@@H]2CCN(c3cn[nH]c(=O)c3Cl)C2)ccn1 [P-0138, (R)-4-chloro-5-(3-((2-(3,5-dimethylisoxazol-4-yl)pyridin-4-yl)oxy)pyrrolidin-1-yl)pyridazin-3(2H)-one]
0.001 to 10	0.001 to 10	Cc1noc(C)c1-c1cc(O[C@@H]2CCN(c3cnn(CCCO)c(=O)c3Cl)C2)ncn1 [P-0139, (R)-4-chloro-5-(3-((6-(3,5-dimethylisoxazol-4-yl)pyrimidin-4-yl)oxy)pyrrolidin-1-yl)-2-(3-hydroxypropyl)pyridazin-3(2H)-one]
0.001 to 10	0.001 to 10	Cc1noc(C)c1-c1cc(O[C@@H]2CCN(c3cnn(CC(O)CO)c(=O)c3Cl)C2)ncn1 (stereo partly drawn) [P-0140, 4-chloro-2-(2,3-dihydroxypropyl)-5-((R)-3-((6-(3,5-dimethylisoxazol-4-yl)pyrimidin-4-yl)oxy)pyrrolidin-1-yl)pyridazin-3(2H)-one]
0.001 to 10	0.001 to 10	Cc1noc(C)c1-c1cc(O[C@@H]2CCN(c3cnn(CCN)c(=O)c3Cl)C2)ncn1 [P-0141, (R)-2-(2-aminoethyl)-4-chloro-5-(3-((6-(3,5-dimethylisoxazol-4-yl)pyrimidin-4-yl)oxy)pyrrolidin-1-yl)pyridazin-3(2H)-one]
0.001 to 10	0.001 to 10	Cc1nn(C)c(C)c1-c1ccnc(O[C@H]2CN(c3cnn(CCO)c(=O)c3Cl)C[C@@H]2F)c1 [P-0142, 4-chloro-5-((3S,4S)-3-fluoro-4-((4-(1,3,5-trimethyl-1H-pyrazol-4-yl)pyridin-2-yl)oxy)pyrrolidin-1-yl)-2-(2-hydroxyethyl)pyridazin-3(2H)-one]
0.001 to 10	0.001 to 10	Cc1nn(C)c(C)c1-c1ccnc(O[C@@H]2CCN(c3cnn(CCO)c(=O)c3Cl)C2)c1 [P-0143, (R)-4-chloro-2-(2-hydroxyethyl)-5-(3-((4-(1,3,5-trimethyl-1H-pyrazol-4-yl)pyridin-2-yl)oxy)pyrrolidin-1-yl)pyridazin-3(2H)-one]
0.001 to 10	0.001 to 10	Cc1nn(C)c(C)c1-c1cc(O[C@H]2CN(c3cnn(CCO)c(=O)c3Cl)C[C@@H]2F)ncn1 [P-0144, 4-chloro-5-((3S,4S)-3-fluoro-4-((6-(1,3,5-trimethyl-1H-pyrazol-4-yl)pyrimidin-4-yl)oxy)pyrrolidin-1-yl)-2-(2-hydroxyethyl)pyridazin-3(2H)-one]
0.001 to 10	0.001 to 10	Cc1noc(C)c1-c1cc(O[C@H]2CN(c3cnn(CCO)c(=O)c3Cl)C[C@@H]2F)ncn1 [P-0145, 4-chloro-5-((3S,4S)-3-((6-(3,5-dimethylisoxazol-4-yl)pyrimidin-4-yl)oxy)-4-fluoropyrrolidin-1-yl)-2-(2-hydroxyethyl)pyridazin-3(2H)-one]
0.001 to 10	0.001 to 10	Cc1noc(C)c1-c1cc(O[C@@H]2CCN(c3cnn(CCO)c(=O)c3Cl)C2)ncc1F [P-0146, (R)-4-chloro-5-(3-((4-(3,5-dimethylisoxazol-4-yl)-5-fluoropyridin-2-yl)oxy)pyrrolidin-1-yl)-2-(2-hydroxyethyl)pyridazin-3(2H)-one]
0.001 to 10	0.001 to 10	Cc1nn(C)c(C)c1-c1cc(O[C@H]2CN(c3cn[nH]c(=O)c3Cl)C[C@@H]2F)ncn1 [P-0147, 4-chloro-5-((3S,4S)-3-fluoro-4-((6-(1,3,5-trimethyl-1H-pyrazol-4-yl)pyrimidin-4-yl)oxy)pyrrolidin-1-yl)pyridazin-3(2H)-one]
0.001 to 10	0.001 to 10	Cc1noc(C)c1-c1cc(O[C@H]2CN(c3cn[nH]c(=O)c3Cl)C[C@@H]2F)ncn1 [P-0148, 4-chloro-5-((3S,4S)-3-((6-(3,5-dimethylisoxazol-4-yl)pyrimidin-4-yl)oxy)-4-fluoropyrrolidin-1-yl)pyridazin-3(2H)-one]
0.001 to 10	0.001 to 10	Cc1noc(C)c1-c1cc(O[C@@H]2CCN(c3cn[nH]c(=O)c3Cl)C2)ncc1F [P-0149, (R)-4-chloro-5-(3-((4-(3,5-dimethylisoxazol-4-yl)-5-fluoropyridin-2-yl)oxy)pyrrolidin-1-yl)pyridazin-3(2H)-one]
0.001 to 10	0.001 to 10	COCc1noc(C)c1-c1ccnc(O[C@@H]2CCN(c3cn[nH]c(=O)c3Cl)C2)c1 [P-0150, (R)-4-chloro-5-(3-((4-(3-(methoxymethyl)-5-methylisoxazol-4-yl)pyridin-2-yl)oxy)pyrrolidin-1-yl)pyridazin-3(2H)-one]
0.001 to 10	0.001 to 10	Cc1c(-c2cc(F)nc(O[C@@H]3CCN(c4cn[nH]c(=O)c4Cl)C3)c2)cnn1CC1(C)COC1 [P-0151, (R)-4-chloro-5-(3-((6-fluoro-4-(5-methyl-1-((3-methyloxetan-3-yl)methyl)-1H-pyrazol-4-yl)pyridin-2-yl)oxy)pyrrolidin-l-yl)pyridazin-3(2H)-one]
0.001 to 10	0.001 to 10	Cc1nn(CC2CC2)c(C)c1-c1cc(F)nc(O[C@@H]2CCN(c3cn[nH]c(=O)c3Cl)C2)c1 [P-0152, (R)-4-chloro-5-(3-((4-(1-(cyclopropylmethyl)-3,5-dimethyl-1H-pyrazol-4-yl)-6-fluoropyridin-2-yl)oxy)pyrrolidin-1-yl)pyridazin-3(2H)-one]
